Test system: Aedes albopictus (Asian Tiger Mosquito) larvae
Experiment: Larval development of Aedes albopictus in sugar-containing aqueous environment
Assay type: in vivo
Conditions: single sugar
Protocol: The combinations and ratios of sugars experimentally tested to date have been chosen to be generally equivalent to the combinations and ratios of sugars found in natural nectars. For example, a 5% tangerine nectar equivalent solution is created by dissolving approximately 6.2 grams of sucrose, approximately 1.9 grams of dextrose (glucose) and approximately 1.9 grams of fructose in 200 ml of water. This provides a solution that is approximately 3.1% sucrose, approximately 0.95% dextrose and approximately 0.95% fructose. A 5% strawberry nectar equivalent solution is created by dissolving approximately 0.7 grams of sucrose, approximately 5.3 grams of dextrose (glucose) and approximately 4.0 grams of fructose in 200 ml of water. This provides a solution that is approximately 0.35% sucrose, approximately 2.65% dextrose and approximately 2.0% fructose. A 5% white mangrove nectar equivalent solution is created by dissolving approximately 2.2 grams of sucrose, approximately 3.2 grams of dextrose (glucose) and approximately 4.6 grams of fructose in 200 ml of water. This provides a solution that is approximately 1.1% sucrose, approximately 01.6% dextrose and approximately 2.3% fructose. The three sugars sucrose, dextrose and fructose were also tested independently in 5% aqueous solutions. Lower concentrations of 0.5%, 1.0% and above of the nectar equivalent solutions and independent sugars were also prepared and tested.
In tests using Aedes albopictus (Asian Tiger Mosquito) or Aedes aegypti (Yellow Fever Mosquito) larvae, 5% solutions of each of the tangerine, strawberry and white mangrove nectar equivalent solutions were independently produced using either phosphate buffered saline or pure water in conjunction with the sugars to create the aqueous environments. Larvae were then introduced into the 5% solution aqueous environments in varying numbers. […] In a further test, liver powder was added to the various solutions above as a nutrient to spur larval development.

Structure (SMILES)	larvae emerged as adults (0.5% solution) [%]	larvae emerged as adults (5% solution) [%]	larval development past the second instar stage (5% solution)
OC[C@H]1O[C@@](CO)(O[C@H]2O[C@H](CO)[C@@H](O)[C@H](O)[C@H]2O)[C@@H](O)[C@@H]1O [sucrose]	77	13	–
O=C(CO)[C@@H](O)[C@H](O)[C@H](O)CO [fructose]	100	–	no larvae developed past the second instar stage
